Source: patent publication US5399565A, “Pyrazolidinone CCK and gastrin antagonists and pharmaceutical formulations therof” (priority 1993, dated 1995)

What was measured:
[1] = Auditory startle response, nicotine withdrawal; format: in vivo, Male Long Evans rats
Source text: (§1) In humans, withdrawal from the chronic administration of benzodiazepines or nicotine can result in a variety of undesirable side-effects, including anxiety. […] Withdrawal from chronic nicotine administration also has anxiogenic effects as indicated by decreased time spent in the light compartment of a light/dark box (Costall et al., Ibid) and increased auditory startle responses. Applicants examined the effects of compounds of this invention on the auditory startle response of rats undergoing withdrawal from the chronic administration of diazepam or nicotine.
(§2) Male Long Evans rats (200-220 g; Harlan Sprague Dawley, Columbus, Ind.) were individually housed in a controlled environment on a 12 hour light-dark cycle and were given free access to food (Purina Rodent Chow) and water. All treatment groups contained 8-10 rats.
(§3) Rats were anesthetized with halothane and Alzet osmotic minipumps (Alza Corporation, Palo Alto, Calif., Model 2ML2) were implanted subcutaneously. Diazepam (Sigma Chemical; St. Louis, Mo.) was suspended in 40% polyethylene glycol, 10% ethanol and Tween 80. Nicotine ditartrate was dissolved in physiological saline. Pumps were filled with either diazepam (20 mg/kg/day), nicotine ditartrate (6 mg/kg base/day), or the appropriate vehicle. Twelve days following implantation of pumps, rats were anesthetized with halothane and the pumps were removed.
(§4) The sensory motor reactions [auditory startle response (peak amplitude, Vmax)]of individual rats was recorded using San Diego Instruments startle chambers (San Diego, Calif.). Startle sessions consisted of a 5-minute adaptation period at a background noise level of 70±2 dBA immediately followed by 25 presentations of auditory stimuli (120±3 dBA noise, 50 ms duration) presented at 8-second intervals. Peak startle amplitudes were then averaged for all 25 presentations of stimuli for each session. Auditory startle responding was evaluated daily at 24 hour intervals on days 1-4 following drug withdrawal.
(§5) The compound of Example 141 was administered 60 minutes before startle testing at doses of 0, 10, 30, 60, or 100 mg/kg.

brain CCK receptor = biological target: T1, brain CCK receptor (Mus musculus, UniProt P56481); assay: CCK receptor binding, mouse brain membranes (125I-CCK-8 sulfate)
T1 construct: from tissue; host or cells: forebrain membranes of male CF-1 mice
T1 sequence (P56481 1-453): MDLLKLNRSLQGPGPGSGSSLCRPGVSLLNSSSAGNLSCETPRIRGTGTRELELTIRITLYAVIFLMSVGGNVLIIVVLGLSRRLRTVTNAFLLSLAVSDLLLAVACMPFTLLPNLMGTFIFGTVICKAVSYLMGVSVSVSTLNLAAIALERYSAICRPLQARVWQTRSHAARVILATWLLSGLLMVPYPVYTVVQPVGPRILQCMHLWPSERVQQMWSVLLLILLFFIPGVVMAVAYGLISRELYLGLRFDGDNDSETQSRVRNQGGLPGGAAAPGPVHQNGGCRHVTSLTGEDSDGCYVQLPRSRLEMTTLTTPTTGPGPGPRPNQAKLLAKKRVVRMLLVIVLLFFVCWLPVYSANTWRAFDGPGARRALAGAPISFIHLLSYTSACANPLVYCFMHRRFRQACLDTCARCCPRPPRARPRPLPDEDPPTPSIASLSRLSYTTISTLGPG

Catalepsy bar test = format: in vivo, Male Sprague-Dawley rats
Description: Acute administration of classical antipsychotic drugs results in catalepsy. Production of catalepsy is thought to be predictive of Parkinson-like extrapyramidal side effects. Sanberg, et al., Neuroscience 102:748-759 (1988). […] Haloperidol, a classical anti-psychotic, was used as a reference.
Male Sprague-Dawley rats (290-350 g) were used in these studies. Catalepsy was evaluated using the bar test (Sanberg et al., Neurosci., 102,748-759, (1988); Ferre, et al., Pharm. Biochem. Beh., 35, 753-757 (1990). The bar apparatus consisted of a horizontal metal rod with a diameter of 1 cm, which was positioned 10 cm from the floor to the top of the bar. The animal was gently placed in front of the bar, and then its forepaws were lifted to rest on the bar. The length of time, in seconds, until both forepaws touched the floor (3 minutes maximum allowed) was recorded. A baseline measurement was taken prior to injection, and catalepsy was evaluated every 60 minutes for three hours after injection of the compounds (Table IV). In a separate set of experiments, the compounds of this invention were administered 60 minutes prior to the administration of haloperidol, and catalepsy was evaluated every 60 minutes for three hours after the haloperidol injection. Catalepsy scores of drug-treated animals were compared to haloperidol- or vehicle-treated animals at each time point using the analysis of variance (ANOVA) (Table V). Haloperidol (Research Biochemicals Inc.) was dissolved in distilled water and a small amount of 0.1N lactic acid. The compounds of this invention were prepared in 50% ethanol. The volume of all injections was 1 ml/kg.

[2] = Auditory startle response, benzodiazepine (diazepam) withdrawal; format: in vivo, Male Long Evans rats; details: for benzodiazepine withdrawal-induced increase in sensory responsiveness: 60 minutes before startle testing, days 1-4
Source text: as §1, §2, §3, §4, §5

[3] = Block of haloperidol-induced catalepsy, bar test; format: in vivo, Male Sprague-Dawley rats; details: vehicle pretreatment, then Hal
Description: Further, compounds of this invention were evaluated for their ability to block haloperidol-induced catalepsy. […] More preferredly, R and R^1 are trans.
Male Sprague-Dawley rats (290-350 g) were used in these studies. […] In a separate set of experiments, the compounds of this invention were administered 60 minutes prior to the administration of haloperidol, and catalepsy was evaluated every 60 minutes for three hours after the haloperidol injection. Catalepsy scores of drug-treated animals were compared to haloperidol- or vehicle-treated animals at each time point using the analysis of variance (ANOVA) (Table V). Haloperidol (Research Biochemicals Inc.) was dissolved in distilled water and a small amount of 0.1N lactic acid. The compounds of this invention were prepared in 50% ethanol. The volume of all injections was 1 ml/kg.

[4] = biological target: T2, peripheral type CCK receptors in rat pancreas (Rattus norvegicus, UniProt P30551); assay: Binding to peripheral type CCK receptors in rat pancreas (3H-L-364,718); details: at 10 μM; read-out: Pancreas Percent Inhibition
T2 construct: Pancreas was obtained from male Sprague-Dawley rats; from tissue; host or cells: pancreas membranes of male Sprague-Dawley rats
T2 sequence (P30551 1-444): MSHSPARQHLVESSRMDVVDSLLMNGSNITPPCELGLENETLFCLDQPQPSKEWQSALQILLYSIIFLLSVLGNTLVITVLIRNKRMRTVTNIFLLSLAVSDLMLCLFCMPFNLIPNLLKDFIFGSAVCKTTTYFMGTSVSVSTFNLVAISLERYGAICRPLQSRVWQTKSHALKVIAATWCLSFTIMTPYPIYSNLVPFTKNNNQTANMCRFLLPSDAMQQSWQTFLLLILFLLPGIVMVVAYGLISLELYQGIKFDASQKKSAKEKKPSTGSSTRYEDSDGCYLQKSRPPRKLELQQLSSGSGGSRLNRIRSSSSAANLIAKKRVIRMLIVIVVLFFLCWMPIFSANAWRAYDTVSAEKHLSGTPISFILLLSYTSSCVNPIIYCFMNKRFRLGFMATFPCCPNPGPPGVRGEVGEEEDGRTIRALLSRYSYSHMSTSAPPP
In short: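 Washed pancreatic membranes from male Sprague-Dawley rats (150-200 g) incubated 1 h at room temperature with 0.4-0.6 nM ³H-L-364,718 in 50 mM Tris pH 7.4, 5 mM MgCl2, bacitracin, 5 mM DTT. Bound radioactivity counted after filtration; nonspecific binding defined with 100 nM L-364,718; IC50 determined.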

[5] = CCK-induced colonic motility in anesthetized ferrets; format: in vivo, male ferrets
Description: (§6) Experiments were performed on fasted (18 hour) male ferrets weighing 0.8-1.5 kilograms (Triple F Supplier) and water was given ad lib. Anesthesia was induced with urethane (0.2 ml/100 grams body weight j.p., Sigma Chemical Company), a tracheal tube was inserted to provide a clear airway for spontaneous breathing and the body temperature was maintained at 38° using a homeothermic blanket (Harvard Apparatus). The left jugular vein was cannulated (PE-50, i.d. 0.58 mm, o.d. 0.97 mm) for the subsequent administration of drugs and the left carotid artery was cannulated (PE-90, i.d. 0.86 mm, o.d. 1.277 mm) for the continual measurement of blood pressure and heart rate. Following a laporatomy, a catheter (PE-50) was inserted into the gall bladder through the bile duct and connected via a pressure transducer to a chart recorder for the visual display. The colon was located and a strain gauge transducer was sutured in the circular muscle direction to monitor contractile state. Before each experiment the blood pressure, heart rate and all motility recording transducers were calibrated for subsequent recording of data.
Following a 30 minute stabilization period, cholecystokinin 8-sulfated (CCK8-S) was given at doses of 100, 300 and 700 ng/kg intravenously (iv), with a 10 minute stabilization period in between CCK8-S doses. […]

[6] = CCK-induced gall bladder emptying in anesthetized ferrets; format: in vivo, male ferrets
Description: as §6
Following a 30 minute stabilization period, cholecystokinin 8-sulfated (CCK8-S) was given at doses of 100, 300 and 700 ng/kg intravenously (iv), with a 10 minute stabilization period in between CCK8-S doses. The test compound was administered (iv) after another 30 minute stabilization period, and the CCK8-S dose-response curve was repeated five minutes later.
Test compound vehicle was 3 drops of DMSO (99.9%), 0.5 ml 0.1N NaOH, saline.

## CN1CCC[C@H]1c1cccnc1 [nicotine, reference compound]
[1]; 6 mg kg base/day, minipump, twelve days, withdrawal
  auditory startle response after cessation of chronic nicotine: significantly increased auditory startle responses

## O=C1NN(C(=O)Nc2ccc(Br)cc2)[C@@H](c2ccccc2)[C@@H]1c1ccccc1 (single isomer, unassigned) [Example 141, (+)-trans-1-[(4-Bromophenyl)aminocarbonyl]-4,5-diphenyl-3pyrazolidinone]
Brain CCK receptor; mouse brain membranes, read-out: Brain IC50
  IC50: 16 nM
Catalepsy bar test; 10 mg/kg, 60 Min
  Catalepsy Score: 3.8 ± 0.9 s
Catalepsy bar test; 10 mg/kg, 120 Min
  Catalepsy Score: 3.3 ± 1.2 s
Catalepsy bar test; 10 mg/kg, 180 Min
  Catalepsy Score: 4.6 ± 2.1 s
Catalepsy bar test; 10 mg/kg, Pre
  Catalepsy Score: 1.1 ± 0.2 s
Catalepsy bar test; 30 mg/kg, 60 Min
  Catalepsy Score: 2.6 ± 1.1 s
Catalepsy bar test; 30 mg/kg, 120 Min
  Catalepsy Score: 2.0 ± 0.6 s
Catalepsy bar test; 30 mg/kg, 180 Min
  Catalepsy Score: 4.9 ± 1.9 s
Catalepsy bar test; 30 mg/kg, Pre
  Catalepsy Score: 1.5 ± 0.3 s
[2]; 60 mg/kg
  benzodiazepine withdrawal-induced increase in sensory responsiveness: significantly reduced the benzodiazepine withdrawal-induced increase in sensory responsiveness on all days examined
[2]; 100 mg/kg
  benzodiazepine withdrawal-induced increase in sensory responsiveness: significantly reduced the benzodiazepine withdrawal-induced increase in sensory responsiveness on all days examined
[1]; 10 mg/kg, days 1-4
  nicotine withdrawal-induced increase in startle response: significantly reduced the nicotine withdrawal-induced increase in startle response on all days except day 4
[1]; 30 mg/kg, days 1-4
  nicotine withdrawal-induced increase in sensory responsiveness: significantly reduced the nicotine withdrawal-induced increase in sensory responsiveness on all days examined
[1]; 60 mg/kg, days 1-4
  nicotine withdrawal-induced increase in sensory responsiveness: significantly reduced the nicotine withdrawal-induced increase in sensory responsiveness on all days examined

## O=C(CCCN1CCC(O)(c2ccc(Cl)cc2)CC1)c1ccc(F)cc1 [Haloperidol]
Catalepsy bar test; 0.25 mg/kg, 60 Min
  Catalepsy Score: 2.2 ± 0.3 s
Catalepsy bar test; 0.25 mg/kg, 120 Min, * P < 0.001 vs vehicle
  Catalepsy Score: 9.9 ± 2.7 s
Catalepsy bar test; 0.25 mg/kg, 180 Min, * P < 0.001 vs vehicle
  Catalepsy Score: 23.1 ± 4.9 s
Catalepsy bar test; 0.25 mg/kg, Pre
  Catalepsy Score: 1.8 ± 1.1 s
Catalepsy bar test; 0.5 mg/kg, 60 Min
  Catalepsy Score: 3.3 ± 1.7 s
Catalepsy bar test; 0.5 mg/kg, 120 Min, * P < 0.001 vs vehicle
  Catalepsy Score: 17.6 ± 2.2 s
Catalepsy bar test; 0.5 mg/kg, 180 Min, * P < 0.001 vs vehicle
  Catalepsy Score: 33.5 ± 8.3 s
Catalepsy bar test; 0.5 mg/kg, Pre
  Catalepsy Score: 0.9 ± 0.2 s
Catalepsy bar test; 1.0 mg/kg, 60 Min, * P < 0.001 vs vehicle
  Catalepsy Score: 10.6 ± 6.3 s
Catalepsy bar test; 1.0 mg/kg, 120 Min, * P < 0.001 vs vehicle
  Catalepsy Score: 100.0 ± 46.2 s
Catalepsy bar test; 1.0 mg/kg, 180 Min, * P < 0.001 vs vehicle
  Catalepsy Score: 123.9 ± 39.7 s
Catalepsy bar test; 1.0 mg/kg, Pre
  Catalepsy Score: 1.2 ± 0.4 s
[3]; 60 Min
  Catalepsy Score: 9.72 ± 2.1 s
[3]; 120 Min
  Catalepsy Score: 27.42 ± 6 s
[3]; 180 Min
  Catalepsy Score: 30.61 ± 6.4 s
[3]; Pre
  Catalepsy Score: 3.12 ± 0.61 s

## O=C1NN(C(=O)Nc2ccccc2)[C@@H](c2ccccc2)[C@@H]1c1ccccc1 (racemic) [Example 15, (±)-trans-1-phenylaminocarbonyl-4,5-diphenyl-3-pyrazolidinone]
Brain CCK receptor; at 10 μM, read-out: Brain Percent Inhibition
  inhibition at 10 µM: 69%
[4]
  inhibition at 10 µM: 10%
[5]; 1 mg/kg iv, CCK 300 ng/kg
  inhibition of CCK-induced colonic motility: 57%
[5]; CCK-8 100 ng/kg
  inhibition of colonic motility: ~75%
[6]; 1 mg/kg iv, CCK 300 ng/kg
  gall bladder emptying: not measurably altered
[6]; CCK-8 100 ng/kg
  alteration of CCK-induced gall bladder emptying: about 10%
[6]; in words
  effect on CCK-induced gall bladder emptying: without affecting CCK-induced gall bladder emptying

## CN1C(=O)CN=C(c2ccccc2)c2cc(Cl)ccc21 [diazepam, reference compound]
[2]; 20 mg/kg/day, minipump, twelve days, withdrawal
  auditory startle response after cessation of chronic diazepam: significantly increased auditory startle responses
